{"source": "patent US12156886B2", "about": "“Methods of increasing blood oxygen saturation” (ThermoLife International, LLC, priority 2020, dated 2024)", "key": {"[1]": {"system": "subject with respiratory illness"}, "[2]": {"settings": "cited from earlier work"}, "[3]": {"system": "NO-induced methemoglobinemia", "assay": "NO-induced methemoglobinemia and lung inflammation after accidental NO exposure, H2 inhalation and magnesium ingestion (Example 12)", "format": "in vivo, human", "text": "During the course of developing the described methods for producing NO for a more affordable, effective, and safe source of NO therapy, one of the inventors accidentally exposed themself both chronically and acutely to NO gas. […] Since onset of symptoms, the inventor inhaled H2 gas, produced by reacting elemental magnesium and citric acid in a glass of water.\nTheir condition and SpO2 worsened throughout the day, and later that night they were admitted in the emergency room at a hospital with a recorded SpO2 of 45%. The hospital verified that the inventor developed NO-induced lung inflammation by X-rays and a CAT scan. Upon the diagnosis, blood samples were taken from the inventor to measure methemoglobin levels. […] A normal methemoglobin fraction is about 1%. […] Accordingly, no methemoglobin treatment (e.g., intravenous administration of methylene blue) was administered to the inventor."}, "[4]": {"settings": "cited from earlier work", "remark": "listed apart in the source"}, "[5]": {"settings": "cited from earlier work", "remark": "listed apart in the source"}, "[6]": {"assay": "Inventor exposed to NO levels higher than 25 ppm during development, SpO2 oximeter", "format": "in vivo, human", "text": "In fact, the inventor's oxygenation levels as measured by SpO2 oximeter were always in the 97-100 range. Accordingly, also disclosed herein are methods of preventing the onset of methemoglobinemia from nitrate, nitrite, or NO exposure, wherein the method comprising administering hydrogen to the subject exposed to a source of nitrate, a source of nitrite, or NO."}}}
{"smiles": "O=[N+]([O-])[O-].[K+]", "note": "[potassium nitrate]", "values": [{"measurement": "other symptoms (weakness, coughing)", "setting": "[1]; human, in vivo", "value": "no attenuation of their other symptoms"}, {"measurement": "SpO2 for up to 4 hours after administration", "setting": "[1]; person", "value": "showed no signs of increase"}, {"measurement": "SpO2 15 minutes after administration", "setting": "[1]; person, baseline 93%", "value": 93, "unit": "%"}, {"measurement": "lower blood oxygen saturation versus the placebo", "setting": "[2]; hypoxic conditions, Schiffer et al.", "value": "about 3%"}]}
{"smiles": "O=[N+]([O-])[O-].[Na+]", "note": "[sodium nitrate]", "values": [{"measurement": "oxygen consumption during exercise", "setting": "[2]; Larsen et al., Bailey et al.", "value": "reduce oxygen consumption during exercise"}]}
{"smiles": "[HH]", "note": "[H2 gas, hydrogen]", "values": [{"measurement": "methemoglobin in blood samples", "setting": "[3]; at SpO2 of 45%, after H2 inhalation and 2000 mg elemental magnesium powder", "value": "no methemoglobin was detected"}, {"measurement": "minor methemoglobinemia caused by inhalation of NO gas", "setting": "[3]; other experiments, SpO2 returning to normal", "value": "reversed"}, {"measurement": "increase in relative humidity", "setting": "for every about 40 ppm increase in H2 concentration, 30 C", "value": 1, "unit": "%"}, {"measurement": "H2 concentration shown safe (no symptoms of water in the lungs)", "setting": "sensor limit 1000 ppm", "value": 1000, "unit": "ppm"}]}
{"smiles": "O=NO", "note": "[Sodium nitrite]", "values": [{"measurement": "methemoglobin level", "setting": "[4]; 600 mg to an adult for cyanide toxicity, van Heijst et al.", "value": 58, "unit": "%"}, {"measurement": "lowest calculated lethal dose", "setting": "[4]; Katabami et al.", "value": 2.6, "unit": "grams"}, {"measurement": "dose in a reported case of severe methemoglobinemia", "setting": "[4]; in vivo", "value": "about 70 mg"}]}
{"smiles": "O=[N+]([O-])O", "note": "[nitrate alone]", "values": [{"measurement": "oxygen saturation", "setting": "[2]; 409 mg and 479 mg doses, Rosetti et al., Barlow et al.", "value": "failed to produce any increase in oxygen saturation"}]}
{"smiles": "[O]N=O", "note": "[NO2, nitrogen dioxide]", "values": [{"measurement": "permissible exposure limit in homes and offices", "setting": "[5]; OSHA, 9 mg/m^3", "value": "≤ 5", "unit": "ppm"}, {"measurement": "concentration that can trigger symptoms in asthmatic people", "setting": "[5]; OSHA", "value": 2, "unit": "ppm"}, {"measurement": "concentration that starts to damage the lungs", "setting": "[5]; OSHA", "value": 5, "unit": "ppm"}, {"measurement": "levels shown to cause respiratory discomfort in vulnerable populations", "setting": "[5]; asthmatics", "value": "≥ 0.1", "unit": "ppm"}, {"measurement": "concentration that can kill a human", "setting": "[5]; exposed for about an hour", "value": 100, "unit": "ppm"}]}
{"smiles": "[N]=O", "note": "[NO, nitric oxide]", "values": [{"measurement": "SpO2 one day after exposure to high ambient NO", "setting": "[3]; ambient NO >80 ppm", "value": 85, "unit": "%"}, {"measurement": "SpO2 recorded in the emergency room later that night", "setting": "[3]; ambient NO >80 ppm, after prolonged H2 inhalation", "value": 45, "unit": "%"}, {"measurement": "ill effects", "setting": "[6]; NO levels higher than 25 ppm", "value": "no ill effects"}, {"measurement": "oxygenation levels by SpO2 oximeter", "setting": "[6]; exposed multiple times to NO levels higher than 25 ppm", "value": "97-100"}, {"measurement": "outright toxic concentration", "setting": "[5]; in vivo", "value": "≥ 100", "unit": "ppm"}]}
